Legend:
[1] = nitrate dosage up to at least 400 mg/kg body weight, starter and grower phases
Description: The amount of one or more nitrates, one or more nitrites, or a mixture thereof fed to the poultry in the feed compositions and/or methods described herein can also be expressed in mg of nitrates and/or nitrites per kg body weight of the poultry. In some embodiments, the nitrate/nitrite amount in the feed composition is less than 500 mg/kg, less than 450 mg/kg, less than 400 mg/kg, or less than 300 mg/kg. In some embodiments, the nitrate/nitrate amount in the feed composition is in the range of 10 to 500 mg/kg, 10 to 400 mg/kg; 10 to 300 mg/kg; 25 to 400 mg/kg; 25 to 200 mg/kg; 50 to 400 mg/kg; 50 to 150 mg/kg; or 100 to 400 mg/kg.

wooden breast = conditions: previous state-of-the-art, poster 450 P, 2015; cited from earlier work

Compound: O=[N+]([O-])[O-].O=[N+]([O-])[O-].[Ca+2] [calcium nitrate]
- effect on growth [1]: does not negatively affect growth
- nitrate poisoning [1]: does not cause nitrate poisoning

Compound: N=C(N)NCCC[C@H](N)C(=O)O [arginine]
- reduction of wooden breast (wooden breast): inefficient in providing effective reduction
